Data: ChEMBL document CHEMBL4483862, “Open-source discovery of chemical leads for next-generation chemoprotective antimalarials” (2018)

System: Plasmodium berghei
Test: Luciferase/luciferin-expressing antifolate-resistant parasites were used to infect a culture of HepG2 cells that were pre-incubated with compounds. Infected hepatocytes emit light due to the luciferase reaction. Assay results are presented as the percent inhibition of light emission compared to control. […]
Type: functional
Details: sporozoite; for IC50: read-out: LUCIFERASE INFECTION ASSAY - IC50; for IC90: read-out: LUCIFERASE INFECTION ASSAY - IC90

| Structure (SMILES) | IC50 [µM] | IC90 [µM] |
| --- | --- | --- |
| CN1C(=O)Cc2cc(C3=NNC(=Nc4ccccc4F)SC3)ccc21 | > 10 | > 10 |
| O=C(COCc1nc2ccccc2s1)NCc1ccc(Cn2cccn2)cc1 | > 10 | > 10 |
| Cc1cc(C)c(OCC(=O)N2CCCC2c2nc3ccccc3[nH]2)c(C)c1 (stereo not drawn) | > 10 | > 10 |
| CC(C)(C)OC(=O)Nc1ccc(C(=O)NCC2(c3ccccc3)CC2)cc1 | > 10 | > 10 |
| CC(NC1CCCCCC1)C(=O)c1c[nH]c2ccccc12 (stereo not drawn) | > 10 | > 10 |
| CC1CSC(N(C(=O)COc2ccccc2F)c2ccc(Cl)cc2)=N1 (stereo not drawn) | > 10 | > 10 |
| COc1ccc(NC(=O)C(c2ccccc2)N2CCN(C)CC2)cc1Cl (stereo not drawn) | > 10 | > 10 |
| Cc1nc(-c2ccc(F)cc2)sc1C(=O)N1CCc2sccc2C1 | > 10 | > 10 |
| CC1CN(C(=O)c2ccc(CN3C(=O)CNC3=O)cc2)CCO1 (stereo not drawn) | > 10 | > 10 |
| CC1CCC(NC(=O)c2ccc(S(=O)(=O)Nc3ccccc3)cc2)CC1 (stereo not drawn) | > 10 | > 10 |
| Cc1c(Cl)c(CN2C(=O)C(=O)N(Cc3cccs3)C2=O)nc2ccccc12 | > 10 | > 10 |
| COc1ccc(C(CNC(=O)c2cc(Br)ccc2F)N(C)C)cc1 (stereo not drawn) | > 10 | > 10 |
| N#CCCN(CCC#N)C(=O)CSc1nnc(CCC(N)=O)n1C1CC1 | > 10 | > 10 |
| COc1cc(OC)c(C(=O)N2CC=C(c3c[nH]c4ccccc34)CC2)cc1OC | > 10 | > 10 |
| Cc1cc(C)n(CC(=O)n2cc(C(=O)c3cc(F)ccc3O)cn2)n1 | > 10 | > 10 |
| Clc1ccc2c(N(Cc3ccco3)Cc3cccs3)ncnc2c1 | > 10 | > 10 |
| Cc1oc(-n2cccc2)c(C#N)c1C(=O)Nc1ccn(C)n1 | > 10 | > 10 |
| O=C1NC2=C(C(=O)N(CCC3=CCCCC3)C2)C(c2ccc(F)cc2)N1 (stereo not drawn) | > 10 | > 10 |
| CN(C)C(CNC(=O)c1ccc(NC(=O)OC(C)(C)C)cc1)c1cccs1 (stereo not drawn) | > 10 | > 10 |
| COc1ccc(OCCn2nc(-c3cccs3)c3ccccc3c2=O)cc1 | 3.71 | > 10 |
| COc1cc(C(=O)N2CC=C(c3c[nH]c4ccccc34)CC2)ccc1C | > 10 | > 10 |
| CCc1ccc(C2=NNC(=Nc3ccccc3F)SC2)s1 | > 10 | > 10 |
| Cc1nc2ncnn2c(C)c1CC(=O)NCCCSc1ccc(F)cc1 | > 10 | > 10 |

| Structure (SMILES) | IC50 [µM] | IC90 [µM] |
| --- | --- | --- |
| O=C(Cc1noc2ccccc12)N1CCN(c2ccc(C(F)(F)F)cn2)CC1 | > 10 | > 10 |
| CC(Sc1cc(C(N)=O)c2ccccc2n1)C(=O)Nc1cccc(F)c1 (stereo not drawn) | > 10 | > 10 |
| CN(Cc1nc2ccccc2s1)C(=O)c1cccc(C#N)c1 | > 10 | > 10 |
| O=C(c1cc(-c2ccccc2)n[nH]1)N1CCN(c2ccccc2F)CC1 | > 10 | > 10 |
| Cc1cc(C(O)=C2Sc3ccccc3C2=O)c(C)n1C | > 10 | > 10 |
| COc1ccc(C2CCCN2Cc2ccc(C(N)=O)cc2)c(OC)c1 (stereo not drawn) | > 10 | > 10 |
| O=C(CCc1cccnc1)Nc1ccc(OC(F)(F)F)cc1 | > 10 | > 10 |
| CCOc1ccc(OCCC(=O)NCc2cccc(C(F)(F)F)c2)cc1 | > 10 | > 10 |
| Cc1ccc(C)c(NC(=O)CN(C)C(=O)CN2CCN(c3ccccc3)CC2)c1 | > 10 | > 10 |
| CCC(=O)c1ccc(OCC(=O)N(C)C2CCc3ccccc32)cc1 (stereo not drawn) | > 10 | > 10 |
| CCCN(CC(=O)Nc1ccccc1C)C(=O)Cn1nnc2ccccc21 | > 10 | > 10 |
| Cc1nn(C)c2sc(C(=O)N(C)c3nc4ccccc4s3)cc12 | > 10 | > 10 |
| O=C(c1cnc2nc(N3CCCCC3)sc2c1)c1ccccc1O | 6.09 | > 10 |
| COC(=O)c1ccccc1N(C)S(=O)(=O)c1ccc(Cl)cc1F | > 10 | > 10 |
| CC(=O)c1ccc(S(=O)(=O)N(Cc2c(F)cccc2Cl)C2CC2)cc1 | > 10 | > 10 |
| COC(=O)c1ccc(S(=O)(=O)N2c3ccccc3CCC2C)cc1 (stereo not drawn) | > 10 | > 10 |
| Cc1cccc(C2NC(=O)NC3=C2C(=O)N(Cc2ccc(F)cc2)C3)c1 (stereo not drawn) | > 10 | > 10 |
| Cc1noc(C)c1CSc1nc(C(C)(C)C)nc2c1c(=O)n(C)c(=O)n2C | > 10 | > 10 |
| CC(C)n1cc(C(=O)c2ccccc2O)cc1-c1nc2ccccc2o1 | > 10 | > 10 |
| CN(Cc1ccc(OCc2ccc(Cl)cc2)cc1)C(=O)c1cnn(C)c1 | > 10 | > 10 |
| CC(C)Cn1c(=O)n(C)c(=O)c2c(SCC#N)nc(CC(C)(C)C)nc21 | > 10 | > 10 |
| Cc1ccc(C(=O)O)cc1NS(C)(=O)=O | > 10 | > 10 |
| CC1C(=O)N(Cc2ncc(-c3ccccc3)o2)C(=O)N1c1ccc(F)cc1 (stereo not drawn) | 9.72 | > 10 |

| Structure (SMILES) | IC50 [µM] | IC90 [µM] |
| --- | --- | --- |
| O=C(Nc1ccc(-c2csc(N3CCOCC3)n2)cc1)c1cccc(F)c1 | > 10 | > 10 |
| O=C(c1ccoc1)N1CCN(Cc2sc3ccccc3c2Cl)CC1 | > 10 | > 10 |
| CC(C)(C)c1ccccc1NC(=O)CCC(=O)N1CCC(c2ccccc2)=N1 | > 10 | > 10 |
| COc1ccc(C)cc1C(C)NC(=O)c1cnn(Cc2ccccc2)c1 (stereo not drawn) | > 10 | > 10 |
| CN(Cc1ccccc1N1CCCCC1)C(=O)c1ccc(NC(=O)C2CC2)s1 | > 10 | > 10 |
| O=C(Nc1ccc(CNC(=O)C2Cc3cc(Cl)ccc3O2)cc1)c1ccco1 (stereo not drawn) | > 10 | > 10 |
| CSc1nc2ccc(NC(=O)c3[nH]c4c(c3C)C(=O)CCC4)cc2s1 | > 10 | > 10 |
| CCNC(=O)c1cccc(Nc2nc(C(F)(F)F)nc3ccccc23)c1 | > 10 | > 10 |
| Cc1noc2nc(C3CC3)cc(C(=O)N3CCC(C(N)=O)CC3)c12 | > 10 | > 10 |
| O=C(NCC1(c2ccccc2)CCC1)c1ccc(Cn2nnc3ccccc32)cc1 | > 10 | > 10 |
| COc1ccc(C)cc1NC(=O)CN(Cc1ccc2c(c1)OCO2)C1CCCC1 | > 10 | > 10 |
| Cc1cccc(C2NC(=O)NC3=C2C(=O)N(CCc2ccccc2)C3)c1 (stereo not drawn) | > 10 | > 10 |
| Cc1cc(C)c(SC(C)C(=O)NC(N)=O)c(C)c1 (stereo not drawn) | > 10 | > 10 |
| COc1ccc(C(NC(=O)c2ccc(-n3cccc3)cc2)c2nccn2C)cc1 (stereo not drawn) | > 10 | > 10 |
| C=CCN(C(=O)c1ccccc1Br)c1nc2ccccc2s1 | > 10 | > 10 |
| C1=C(c2nc3ccccc3[nH]2)C(c2ccccc2)=NNC1c1ccccc1 (stereo not drawn) | 9.97 | > 10 |
| Cc1cc(C(=O)COC(=O)c2ccc(Cl)cc2N)c(C)n1CC1CCCO1 (stereo not drawn) | > 10 | > 10 |
| Cc1ccc(-n2nnnc2SCc2nc(-c3ccc(C)c(F)c3)no2)c(C)c1 | > 10 | > 10 |
| O=S(=O)(Nc1ccc(S(=O)(=O)NC2CC2)cc1)c1cc(F)cc(F)c1 | > 10 | > 10 |
| O=C(CCCNC(=O)c1ccsc1)Nc1ccc(OC(F)(F)F)cc1 | > 10 | > 10 |
| Cc1cc(C)n(CCCNC(=O)Cc2c(C)nc3ncnn3c2C)n1 | > 10 | > 10 |
| Cc1ccc(C)c(NC(=O)CN(C)C(=O)CN(C)C(C)c2ccccc2)c1 (stereo not drawn) | > 10 | > 10 |
| N#Cc1cccc(NC(=O)CNc2cc(C(F)(F)F)ccc2N2CCCC2)c1 | > 10 | > 10 |

| Structure (SMILES) | IC50 [µM] | IC90 [µM] |
| --- | --- | --- |
| O=C(Cc1nc(=O)c2c3c(sc2[nH]1)CCCC3)c1c[nH]c2ccccc12 | > 10 | > 10 |
| c1ccc(-c2nnc(SCc3cn4ccccc4n3)nc2-c2ccccc2)cc1 | > 10 | > 10 |
| CN(C(=O)CN1CCc2ccccc2C1)C1(C#N)CCCCC1 | > 10 | > 10 |
| O=c1cc(N2CCN(CCOc3ccccc3Cl)CC2)nc2ccccn12 | > 10 | > 10 |
| CCc1ccc2nc(NC(=O)CN(C)C(=O)c3ccco3)sc2c1 | > 10 | > 10 |
| O=C(Cc1cc(Cl)c2c(c1)OCCO2)NC(c1ccccc1)c1cccs1 (stereo not drawn) | > 10 | > 10 |
| CCc1ccccc1NCC(=O)Nc1cc(Cl)ccc1-n1cncn1 | > 10 | > 10 |
| CNC(=O)c1ccc(S(=O)(=O)Nc2cccc(-c3nnnn3C)c2)cc1 | > 10 | > 10 |
| O=C(c1ccc(-c2ccc3c(c2)OCCO3)s1)N1CCc2ccccc21 | > 10 | > 10 |
| CC(=O)NCc1ccc(-c2csc(NC(=O)CCc3ccco3)n2)cc1 | > 10 | > 10 |
| O=C(Nc1ccccc1)c1ccc(CN2CCCC(C(F)(F)F)C2)cc1 (stereo not drawn) | 2.2 | 8.25 |
| CC(=O)N1CCc2cc(NC(=O)CNc3ccc(C)cc3C)ccc21 | > 10 | > 10 |
| COc1ccc2cc(CN(C)C(=O)c3cnn(Cc4ccccc4)c3)ccc2c1 | 2.85 | > 10 |
| CCCOc1ccccc1NC(=O)COc1nnc2ccccn12 | > 10 | > 10 |
| Cc1cccc(OCc2nnc(SCC(=O)c3ccc4c(c3)CCC4)o2)c1 | > 10 | > 10 |
| CC(=O)c1c(F)cccc1N1CCC(c2nc3ccccc3[nH]2)CC1 | 2.87 | 5.87 |
| COc1ccc(S(=O)(=O)N2CCN(CC(=O)N3CCCCCC3)CC2)cc1 | > 10 | > 10 |
| CC(C)c1cccc(Nc2ccc3nnc(C(F)(F)F)n3n2)c1 | > 10 | > 10 |
| COc1cc(/C=C2\C=c3ccccc3=C2O)cc(Cl)c1OC(C)C | > 10 | > 10 |
| O=C(Cn1nc(-c2ccco2)oc1=O)N(Cc1ccccc1)c1ccccc1 | > 10 | > 10 |
